In brackets after ≈: the same amount, converted by molar mass.
What was measured:
[1] = tested on: Mycobacterium tuberculosis; assay: Antimycobacterial activity against Mycobacterium tuberculosis H37Rv; type: functional, organism-based
[2] = tested on: Mycobacterium tuberculosis; assay: Antimycobacterial activity against Mycobacterium tuberculosis H37Ra by microplate alamar blue assay; type: functional
[3] = tested on: Mycobacterium tuberculosis; assay: Bactericidal activity against Mycobacterium tuberculosis H37Rv; type: functional
[4] = tested on: Mycobacterium tuberculosis; assay: Antimycobacterial activity against Mycobacterium tuberculosis H37Rv after 7 days by microplate alamar blue assay; type: functional; settings: 168 h
[5] = tested on: Mycobacterium tuberculosis; assay: Antimycobacterial activity against Mycobacterium tuberculosis H37Rv ATCC 27294 after 5 days by microplate alamar blue assay; type: functional; settings: H37Rv ATCC 27294, 120 h

Structure (SMILES) | IC50 [1] | IC90 [1] | MIC [1] | MIC [2] | MBC [3] | MIC90 [4] | MIC [5]
C/C(=N\O)[C@@H]1CC[C@]2(CO)CC[C@]3(C)[C@H](CC[C@@H]4[C@@]5(C)CCCNC(C)(C)[C@@H]5CC[C@]43C)[C@@H]12 | 43 µM | 41 µM | 43 µM (≈ 19.7 µg/mL) | – | – | – | –
CC[C@@H](CO)NCCN[C@@H](CC)CO [ETHAMBUTOL] | 1.25 µM | 1.78 µM | 6.25 µM (≈ 1.28 µg/mL) | – | – | – | –
COC(=O)[C@]12CCC(C)(C)C[C@@H]1C1=CC[C@@H]3[C@@]4(C)CCC(=O)NC(C)(C)[C@@H]4CC[C@@]3(C)[C@]1(C)CC2 | – | – | > 10 µM | – | – | – | –
C[C@H]1[C@H](C)CC[C@]2(C(=O)O)CC[C@]3(C)C(=CC[C@@H]4[C@@]5(C)CC[C@H](OC(=O)/C=C/c6ccc(O)cc6)C(C)(C)[C@@H]5CC[C@]43C)[C@H]12 | – | – | – | 6.25 µg/mL (≈ 10.4 µM) | – | – | –
CC1(C)CC[C@]2(COC(=O)/C=C/c3ccccc3)CC[C@]3(C)C(=CC[C@@H]4[C@@]5(C)CCCNC(C)(C)[C@@H]5CC[C@]43C)[C@H]2C1 | 8 µM | 12 µM | 12 µM (≈ 6.86 µg/mL) | – | 12 µg/mL (≈ 21 µM) | – | –
CC1(C)CC[C@]2(CO)CC[C@]3(C)C(=CC[C@@H]4[C@@]5(C)CCCNC(C)(C)[C@@H]5CC[C@]43C)[C@H]2C1 | 3.8 µM | 11.5 µM | 12.5 µM (≈ 5.52 µg/mL) | – | 20 µg/mL (≈ 45.3 µM) | – | –
C=C(C)[C@@H]1CC[C@]2(COC(=O)/C=C/c3ccccc3)CC[C@]3(C)[C@H](CC[C@@H]4[C@@]5(C)CCCNC(C)(C)[C@@H]5CC[C@]43C)[C@@H]12 | 6.7 µM | 7.7 µM | 10 µM (≈ 5.72 µg/mL) | – | 4 µg/mL (≈ 6.99 µM) | – | –
C=C(C)[C@@H]1CC[C@]2(C(=O)OC)CC[C@]3(C)[C@H](CC[C@@H]4[C@@]5(C)CCC(=O)NC(C)(C)[C@@H]5CC[C@]43C)[C@@H]12 | – | – | > 10 µM | – | – | – | –
CC1(C)CC[C@]2(C(=O)O)CC[C@]3(C)C(=CC[C@@H]4[C@@]5(C)CC[C@H](OC(=O)/C=C/c6ccc(O)cc6)C(C)(C)[C@@H]5CC[C@]43C)[C@@H]2C1 | – | – | – | 6.25 µg/mL (≈ 10.4 µM) | – | – | –
C=C(C)[C@@H]1CC[C@]2(CO)CC[C@]3(C)[C@H](CC[C@@H]4[C@@]5(C)CC[C@H](O)C(C)(C)[C@@H]5CC[C@]43C)[C@@H]12 [BETULIN] | – | – | – | – | – | 25 to 30 µg/mL (≈ 56.5 to 67.8 µM) | –
COc1cc(/C=C/C(=O)O)ccc1O.C[C@H]1[C@H](C)CC[C@]2(C(=O)O)CC[C@]3(C)C(=CC[C@@H]4[C@@]5(C)CC[C@H](O)C(C)(C)[C@@H]5CC[C@]43C)[C@H]12 | – | – | – | 3.13 µg/mL | – | – | –
CC1(C)CC[C@@]23CC[C@]4(C)C(OC2)(C(=O)C[C@@H]2[C@@]5(C)CCCNC(C)(C)[C@@H]5CC[C@]24C)[C@H]3C1 | 11 µM | 53 µM | 29 µM (≈ 13.2 µg/mL) | – | – | – | –
N[C@@H]1CONC1=O [CYCLOSERINE] | 20.8 µM | 33.1 µM | 50 µM (≈ 5.1 µg/mL) | – | – | – | –
CC1(C)CC[C@]2(C(=O)O)CC[C@]3(C)C(=CC[C@@H]4[C@@]5(C)CC[C@H](O)C(C)(C)[C@@H]5CC[C@]43C)[C@@H]2C1 [OLEANOLIC_ACID] | – | – | – | 25 µg/mL (≈ 54.7 µM) | – | – | 50 µg/mL (≈ 109 µM)
COC(=O)[C@]12CC[C@@H](C(C)CO)[C@@H]1[C@H]1CC[C@@H]3[C@@]4(C)CCC(=O)NC(C)(C)[C@@H]4CC[C@@]3(C)[C@]1(C)CC2 (some centres not stated) | 5.7 µM | 18.3 µM | 12.5 µM (≈ 6.27 µg/mL) | – | – | – | –
COC(=O)[C@]12CCC(C)(C)C[C@@H]1C1/C(=N/O)C[C@@H]3[C@@]4(C)CCC(=O)NC(C)(C)[C@@H]4CC[C@@]3(C)[C@]1(C)CC2 (some centres not stated) | 54 µM | 97 µM | 97 µM (≈ 49.9 µg/mL) | – | – | – | –
NNC(=O)c1ccncc1 [ISONIAZID] | 0.12 µM | 0.19 µM | 0.31 µM (≈ 0.0425 µg/mL) | – | – | – | –
C=C(C)[C@@H]1CC[C@]2(COC(=O)/C=C/c3ccc(OC)cc3)CC[C@]3(C)[C@H](CC[C@@H]4[C@@]5(C)CCCNC(C)(C)[C@@H]5CC[C@]43C)[C@@H]12 | 160 µM | > 200 µM | > 200 µM | – | – | – | –
C=C(C)[C@@H]1CC[C@]2(CO)CC[C@]3(C)[C@H](CC[C@@H]4[C@@]5(C)CCCN(CCCN)C(C)(C)[C@@H]5CC[C@]43C)[C@@H]12 | – | – | > 10 µM | – | – | – | –

Structure (SMILES) | IC50 [1] | IC90 [1] | MIC [1] | MIC [2] | MBC [3] | MIC90 [4] | MIC [5]
CC(COC(=O)/C=C/c1ccccc1)[C@@H]1CC[C@]2(COC(=O)/C=C/c3ccccc3)CC[C@]3(C)[C@H](CC[C@@H]4[C@@]5(C)CCCNC(C)(C)[C@@H]5CC[C@]43C)[C@@H]12 (some centres not stated) | > 200 µM | > 200 µM | 200 µM (≈ 144 µg/mL) | – | – | – | –
CC(=O)[C@@H]1CC[C@]2(CO)CC[C@]3(C)[C@H](CC[C@@H]4[C@@]5(C)CCCNC(C)(C)[C@@H]5CC[C@]43C)[C@@H]12 | 17.7 µM | 56.9 µM | 50 µM (≈ 22.2 µg/mL) | – | – | – | –
CO[C@H]1/C=C/O[C@@]2(C)Oc3c(C)c(O)c4c(O)c(c(/C=N/N5CCN(C)CC5)c(O)c4c3C2=O)NC(=O)/C(C)=C\C=C\[C@H](C)[C@H](O)[C@@H](C)[C@@H](O)[C@@H](C)[C@H](OC(C)=O)[C@@H]1C [RIFAMPIN] | 0.02 µM | 0.03 µM | 0.04 µM (≈ 0.0329 µg/mL) | – | – | – | –
NCC[C@H](O)C(=O)N[C@@H]1C[C@H](N)[C@@H](O[C@H]2O[C@H](CN)[C@@H](O)[C@H](O)[C@H]2O)[C@H](O)[C@H]1O[C@H]1O[C@H](CO)[C@@H](O)[C@H](N)[C@H]1O [AMIKACIN] | 0.08 µM | 0.09 µM | 0.16 µM (≈ 0.0937 µg/mL) | – | – | – | –
C[C@H]1[C@H](C)CC[C@]2(CO)CC[C@]3(C)C(=CC[C@@H]4[C@@]5(C)CCCNC(C)(C)[C@@H]5CC[C@]43C)[C@@H]12 | 4.9 µM | 14.5 µM | 12.5 µM (≈ 5.52 µg/mL) | – | 20 µg/mL (≈ 45.3 µM) | – | –
CCc1nc(N)nc(N)c1-c1ccc(Cl)cc1 [PYRIMETHAMINE] | 23.3 µM | 35.9 µM | 50 µM (≈ 12.4 µg/mL) | – | – | – | –
COC(=O)[C@]12CC[C@@H](C(C)COC(=O)CCC(=O)O)[C@@H]1[C@H]1CC[C@@H]3[C@@]4(C)CCC(=O)NC(C)(C)[C@@H]4CC[C@@]3(C)[C@]1(C)CC2 (some centres not stated) | 23 µM | 27 µM | 28 µM (≈ 16.9 µg/mL) | – | – | – | –
COc1ccc(/C=C/C(=O)OC[C@]23CCC(C)(C)C[C@@H]2C2=CC[C@@H]4[C@@]5(C)CCCNC(C)(C)[C@@H]5CC[C@@]4(C)[C@]2(C)CC3)cc1 | > 100 µM | > 100 µM | > 100 µM | – | – | – | –
COc1ccc(/C=C/C(=O)OC[C@]23CC[C@@H](C)[C@H](C)[C@@H]2C2=CC[C@@H]4[C@@]5(C)CCCNC(C)(C)[C@@H]5CC[C@@]4(C)[C@]2(C)CC3)cc1 | 1.8 µM | 2.5 µM | 3.12 µM (≈ 1.88 µg/mL) | – | 12 µg/mL (≈ 19.9 µM) | – | –
C=C(C)[C@@H]1CC[C@]2(C(=O)O)CC[C@]3(C)[C@H](CC[C@@H]4[C@@]5(C)C[C@@H](O)[C@H](O)C(C)(C)[C@@H]5CC[C@]43C)[C@@H]12 [ALPHITOLIC ACID] | – | – | – | – | – | 12.5 µg/mL (≈ 26.4 µM) | –
CC(CO)[C@@H]1CC[C@]2(CO)CC[C@]3(C)[C@H](CC[C@@H]4[C@@]5(C)CCCNC(C)(C)[C@@H]5CC[C@]43C)[C@@H]12 (some centres not stated) | 4.6 µM | 14.1 µM | 12.5 µM (≈ 5.75 µg/mL) | – | – | – | –
C[C@H]1[C@H](C)CC[C@]2(COC(=O)/C=C/c3ccccc3)CC[C@]3(C)C(=CC[C@@H]4[C@@]5(C)CCCNC(C)(C)[C@@H]5CC[C@]43C)[C@@H]12 | 3.8 µM | 5.2 µM | 6.25 µM (≈ 3.57 µg/mL) | – | 14 µg/mL (≈ 24.5 µM) | – | –
CC1(C)CC[C@]2(COC(=O)CCC(=O)O)CC[C@]3(C)C(=CC[C@@H]4[C@@]5(C)CCCNC(C)(C)[C@@H]5CC[C@]43C)[C@H]2C1 | 20.6 µM | 82.5 µM | 100 µM (≈ 54.2 µg/mL) | – | – | – | –
COC(=O)[C@]12CC[C@@H](C)[C@H](C)[C@@H]1C1=CC[C@@H]3[C@@]4(C)CCC(=O)NC(C)(C)[C@@H]4CC[C@@]3(C)[C@]1(C)CC2 | – | – | > 10 µM | – | – | – | –
COC(=O)[C@]12CC[C@@H](C(C)COC(=O)/C=C/c3ccccc3)[C@@H]1[C@H]1CC[C@@H]3[C@@]4(C)CCC(=O)NC(C)(C)[C@@H]4CC[C@@]3(C)[C@]1(C)CC2 (some centres not stated) | > 200 µM | > 200 µM | > 200 µM | – | – | – | –
C[C@H]1[C@H](C)CC[C@]2(COC(=O)CCC(=O)O)CC[C@]3(C)C(=CC[C@@H]4[C@@]5(C)CCCNC(C)(C)[C@@H]5CC[C@]43C)[C@@H]12 | 92 µM | 110 µM | 111 µM (≈ 60.1 µg/mL) | – | – | – | –
C=C(C)[C@@H]1CC[C@]2(COC(=O)CCC(=O)O)CC[C@]3(C)[C@H](CC[C@@H]4[C@@]5(C)CCCNC(C)(C)[C@@H]5CC[C@]43C)[C@@H]12 | 40 µM | 70 µM | 61 µM (≈ 33.1 µg/mL) | – | 11 µg/mL (≈ 20.3 µM) | – | –
C=C(C)[C@@H]1CC[C@]2(C(=O)O)CC[C@]3(C)[C@H](CC[C@@H]4[C@@]5(C)CC[C@H](OC(=O)/C=C/c6ccc(O)cc6)C(C)(C)[C@@H]5CC[C@]43C)[C@@H]12 | – | – | – | 6.25 µg/mL (≈ 10.4 µM) | – | – | –

— ChEMBL document CHEMBL4251581, “Synthesis and antimycobacterial activity of triterpeni≿ A-ring azepanes” (Eur J Med Chem, 2018)
